Several values for one entry are separate records, joined by “and”; a condition that tells them apart may be missing. Equal values may be shown once. Where a SMILES comes first, the peptide text is derived from it. Bridges are numbered along the chain shown (N, C = ends). [ ]: non-standard residue; d: D form. The star is where a group is joined. d1Nal = N[C@H](Cc1cccc2ccccc12)C(=O)O; Ahp = NCCCCCCC(=O)O; Bn = c1ccc(C*)cc1
target: Somatostatin receptor type 5 (Homo sapiens, UniProt P35346)
Sequence (P35346 whole entry): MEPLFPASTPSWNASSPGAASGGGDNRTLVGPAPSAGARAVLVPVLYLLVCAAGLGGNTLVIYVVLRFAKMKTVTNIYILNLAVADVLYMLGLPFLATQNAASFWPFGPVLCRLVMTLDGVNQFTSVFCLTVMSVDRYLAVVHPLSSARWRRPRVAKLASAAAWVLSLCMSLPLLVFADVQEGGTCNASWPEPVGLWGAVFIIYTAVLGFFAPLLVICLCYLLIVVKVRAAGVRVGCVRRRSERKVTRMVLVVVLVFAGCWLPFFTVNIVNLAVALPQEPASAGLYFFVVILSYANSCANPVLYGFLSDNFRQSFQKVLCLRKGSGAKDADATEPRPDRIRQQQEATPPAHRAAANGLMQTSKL

SMILES | Ki
C[C@@H](O)[C@@H]1NC(=O)[C@H](CCCCN)NC(=O)[C@H](Cc2c[nH]c3ccccc23)NC(=O)[C@H](Cc2ccccc2)NC(=O)[C@H](Cc2ccccc2)NC(=O)[C@H](CC(N)=O)NC(=O)[C@H](CCCCN)NC(=O)[C@@H](NC(=O)[C@@H]2CCCN2)CSSC[C@@H](C(=O)N[C@@H](CCCCN)C(=O)O)NC(=O)[C@H](CO)NC(=O)[C@H](CO)NC(=O)[C@H](Cc2ccccc2)NC1=O [CORTISTATIN-14] (H-PCKNFFWKTFSSCK-OH; disulfide 2-13) | 0.57 nM and 1.94 nM and 0.45 nM

target: Somatostatin receptor type 2 (Homo sapiens, UniProt P30874)
Sequence (P30874 whole entry): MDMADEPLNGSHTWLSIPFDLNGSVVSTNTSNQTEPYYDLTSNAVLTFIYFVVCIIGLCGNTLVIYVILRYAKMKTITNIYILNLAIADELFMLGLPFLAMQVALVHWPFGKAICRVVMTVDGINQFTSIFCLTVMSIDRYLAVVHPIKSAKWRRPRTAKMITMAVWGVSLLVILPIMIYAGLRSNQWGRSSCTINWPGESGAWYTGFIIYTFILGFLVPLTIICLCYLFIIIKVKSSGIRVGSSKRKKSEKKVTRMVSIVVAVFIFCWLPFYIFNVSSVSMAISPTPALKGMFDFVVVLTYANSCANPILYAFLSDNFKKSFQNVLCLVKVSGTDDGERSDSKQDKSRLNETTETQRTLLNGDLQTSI

SMILES | Ki
C[C@@H](O)[C@@H]1NC(=O)[C@H](CCCCN)NC(=O)[C@@H](Cc2c[nH]c3ccccc23)NC(=O)[C@H](Cc2ccccc2)NC(=O)[C@@H]2CCCN2C(=O)[C@H](Cc2ccccc2)NC1=O (cyclo(PF[dW]KTF)) | 5.24 nM and 4.07 nM and 4.78 nM and 0.53 nM
CC(C)[C@@H]1NC(=O)[C@H](CCCCN)NC(=O)[C@@H](Cc2c[nH]c3ccccc23)NC(=O)[C@H](Cc2ccc(O)cc2)NC(=O)[C@@H](NC(=O)[C@H](N)Cc2ccc3ccccc3c2)CSSC[C@@H](C(=O)N[C@H](C(N)=O)[C@@H](C)O)NC1=O [3-(2-Naphtyl)-D-Ala-L-Cys(1)-L-Tyr-D-Trp-L-Lys-L-Val-L-Cys(1)-L-Thr-NH2] | 0.53 nM and 1.38 nM and 0.28 nM and 0.21 nM
CC(C)[C@H](NC(=O)[C@H](CCCCN)NC(=O)[C@@H](Cc1c[nH]c2ccccc12)NC(=O)[C@H](Cc1ccc(O)cc1)NC(=O)[C@H](Cc1ccccc1)NC(=O)[C@H](N)Cc1ccccc1)C(=O)N[C@@H](Cc1ccccc1)C(=O)N[C@H](Cc1cccc2ccccc12)C(N)=O [BIM 23056] (H-[dF]FY[dW]KVF[d1Nal]-NH2) | 468 nM and 724 nM and 417 nM and 224 nM
C[C@@H](O)[C@H](NC(=O)[C@H](Cc1ccccc1)NC(=O)[C@@H](NC(=O)[C@H](CCCCN)NC(=O)[C@@H](Cc1c[nH]c2ccccc12)NC(=O)[C@H](Cc1ccccc1)NC(=O)[C@H](Cc1ccccc1)NC(=O)[C@H](N)Cc1ccccc1)[C@@H](C)O)C(N)=O [CAS_133073-82-2] (H-[dF]FF[dW]KTFT-NH2) | 1.73 nM and 5.01 nM and 16.6 nM and 2.81 nM and 1.86 nM
C[C@@H](O)[C@@H]1NC(=O)[C@H](CCCCN)NC(=O)[C@H](Cc2c[nH]c3ccccc23)NC(=O)[C@H](Cc2ccccc2)NC(=O)[C@H](Cc2ccccc2)NC(=O)[C@H](CC(N)=O)NC(=O)[C@H](CCCCN)NC(=O)[C@@H](NC(=O)[C@@H]2CCCN2)CSSC[C@@H](C(=O)N[C@@H](CCCCN)C(=O)O)NC(=O)[C@H](CO)NC(=O)[C@H](CO)NC(=O)[C@H](Cc2ccccc2)NC1=O [CORTISTATIN-14] (H-PCKNFFWKTFSSCK-OH; disulfide 2-13) | 0.91 nM and 1.77 nM and 4.46 nM
C[C@@H](O)[C@@H]1NC(=O)[C@H](CCCCN)NC(=O)[C@@H](Cc2c[nH]c3ccccc23)NC(=O)[C@H](Cc2c[nH]c3ccccc23)NC(=O)[C@H](Cc2ccccc2)NC(=O)CCCCCCNC(=O)[C@H](Cc2ccccc2)NC1=O [L-362855] (cyclo([Ahp]FW[dW]KTF)) | 2.04 nM and 4.36 nM and 1.62 nM
C[C@@H](OCc1ccccc1)[C@@H]1NC(=O)[C@H](CCCCN)NC(=O)[C@@H](Cc2c[nH]c3ccccc23)NC(=O)[C@H](Cc2ccccc2)NC(=O)CCCCCCNC1=O [c[Aha-Phe-D-Trp-Lys-Thr(Bzl)]] (cyclo([Ahp]F[dW]KT(Bn))) | 1580 nM and 3980 nM and 3720 nM and 1700 nM and 1260 nM

From BindingDB's records for doi:10.1016/s0014-2999(98)00159-9 (Novartis Pharma, 1998)
